Source: US20150344457A1, “METHODS OF INHIBITING PRMT5” (EPIZYME, INC., priority 2012, published 2015)
Read-outs that look alike come from different tables or passages of the source.

Molecular target: T1, PRMT5/MEP50 (Homo sapiens, UniProt O14744)
T1 construct: Expressed full-length human Flag-PRMT5/6His-MeP50 protein complex was purified; made in house; host or cells: Spodoptera frugiperda (SF9) insect cells, baculovirus (pDEST8)
Experiment: PRMT5 Biochemical Assay (PRMT5/MEP50 enzyme assay on peptide substrate, 3H-SAM Flashplate)
Settings: PRMT5/MEP50 4 nM, 3H-SAM 75 nM, peptide 40 nM, read-out: Biochemical IC50
Source text: S-adenosylmethionine (SAM), S-adenosylhomocysteine (SAH), bicine, KCl, Tween20, dimethylsulfoxide (DMSO), bovine skin gelatin (BSG), and Tris(2-carboxyethyl)phosphine hydrochloride solution (TCEP) were purchased from Sigma-Aldrich at the highest level of purity possible. ^3H-SAM was purchase from American Radiolabeled Chemicals with a specific activity of 80 Ci/mmol 384-well streptavidin Flashplates were purchased from PerkinElmer.
Peptide representative of human histone H4 residues 1-15 was synthesized with a C-terminal linker-affinity tag motif and a C-terminal amide cap by 21st Century Biochemicals. […] The sequence was Ac-[…][K-Biot]-amide (SEQ ID NO.:3).
Full-length human MEP50 (NM_024102) clone was amplified from a human testis cDNA library incorporating a 5′ sequence encoding a 6-histidine tag (MHHHHHH) (SEQ ID NO.:5) fused directly to Arg 2 of MEP50. The amplified genes were sublconed into pENTR/D/TEV (Life Technologies) and subsequently transferred by Gateway™ attL×attR recombination to pDEST8 baculvirus expression vector (Life Technologies).
Recombinant baculovirus and Baculovirus-Infected Insect Cells (BIIC) were generated according to Bac-to-Bac kit instructions (Life Technologies) and Wasilko, 2006, respectively. Protein over-expression was accomplished by infecting exponentially growing Spodoptera frugiperda (SF9) cell culture at 1.2×10^6 cell/ml with a 5000 fold dilution of BIIC stock. Infections were carried out at 27° C. for 72 hours, harvested by centrifugation, and stored at −80° C. for purification.
Flag-PRMT5/6His-MeP50 was eluted with 300 mM Imidazole in the same buffer. […] Reference: Wasilko, D. J. and S. E. Lee: “TIPS: titerless infected-cells preservation and scale-up” Bioprocess J., 5 (2006), pp. 29-32.
General Procedure for PRMT5/MEP50 Enzyme Assays on Peptide Substrates.
The assays were all performed in a buffer consisting of 20 mM Bicine (pH=7.6), 1 mM TCEP, 0.005% BSG, and 0.002% Tween20, prepared on the day of use. Compounds in 100% DMSO (1 ul) were spotted into a polypropylene 384-well V-bottom plates (Greiner) using a Platemate Plus outfitted with a 384-channel head (Thermo Scientific). DMSO (1 ul) was added to Columns 11, 12, 23, 24, rows A-H for the maximum signal control and 1 ul of SAH, a known product and inhibitor of PRMT5/MEP50, was added to columns 11, 12, 23, 24, rows I-P for the minimum signal control. A cocktail (40 ul) containing the PRMT5/MEP50 enzyme and the peptide was added by Multidrop Combi (Thermo-Fisher). The compounds were allowed to incubate with PRMT5/MEP50 for 30 min at 25 degrees Celsius, then a cocktail (10 ul) containing ^3H-SAM was added to initiate the reaction (final volume=51 ul). The final concentrations of the components were as follows: PRMT5/MEP50 was 4 nM, ^3H-SAM was 75 nM, peptide was 40 nM, SAH in the minimum signal control wells was 100 uM, and the DMSO concentration was 1%. The assays were stopped by the addition of non-radioactive SAM (10 ul) to a final concentration of 600 uM, which dilutes the ^3H-SAM to a level where its incorporation into the peptide substrate is no longer detectable. 50 ul of the reaction in the 384-well polypropylene plate was then transferred to a 384-well Flashplate and the biotinylated peptides were allowed to bind to the streptavidin surface for at least 1 hour before being washed three times with 0.1% Tween20 in a Biotek ELx405 plate washer. The plates were then read in a PerkinElmer TopCount plate reader to measure the quantity of ^3H-labeled peptide bound to the Flashplate surface, measured as disintegrations per minute (dpm) or alternatively, referred to as counts per minute (cpm).
where dpm=disintegrations per minute, cmpd=signal in assay well, and min and max are the respective minimum and maximum signal controls.
where top and bottom are the normally allowed to float, but may be fixed at 100 or 0 respectively in a 3-parameter fit.

T1 sequence (O14744 with tags, fused parts or gaps): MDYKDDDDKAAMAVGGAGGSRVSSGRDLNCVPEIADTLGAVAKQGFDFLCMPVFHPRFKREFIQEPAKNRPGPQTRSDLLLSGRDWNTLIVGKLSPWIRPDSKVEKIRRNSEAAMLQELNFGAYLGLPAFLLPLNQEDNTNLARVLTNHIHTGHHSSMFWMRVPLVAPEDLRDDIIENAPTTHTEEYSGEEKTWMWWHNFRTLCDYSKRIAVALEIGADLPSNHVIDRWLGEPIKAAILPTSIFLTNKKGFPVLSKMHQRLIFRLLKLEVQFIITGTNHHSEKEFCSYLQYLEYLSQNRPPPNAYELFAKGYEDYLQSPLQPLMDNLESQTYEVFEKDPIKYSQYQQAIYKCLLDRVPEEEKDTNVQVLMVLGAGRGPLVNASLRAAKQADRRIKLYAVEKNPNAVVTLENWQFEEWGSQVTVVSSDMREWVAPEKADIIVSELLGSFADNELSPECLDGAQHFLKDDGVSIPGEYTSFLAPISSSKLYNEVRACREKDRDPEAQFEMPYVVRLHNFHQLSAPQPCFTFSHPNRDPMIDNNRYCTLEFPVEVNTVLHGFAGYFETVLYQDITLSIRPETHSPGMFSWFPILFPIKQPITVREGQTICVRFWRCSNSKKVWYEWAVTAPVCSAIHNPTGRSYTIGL
T1 sequence (Q9BQA1 with tags, fused parts or gaps partner limits assumed): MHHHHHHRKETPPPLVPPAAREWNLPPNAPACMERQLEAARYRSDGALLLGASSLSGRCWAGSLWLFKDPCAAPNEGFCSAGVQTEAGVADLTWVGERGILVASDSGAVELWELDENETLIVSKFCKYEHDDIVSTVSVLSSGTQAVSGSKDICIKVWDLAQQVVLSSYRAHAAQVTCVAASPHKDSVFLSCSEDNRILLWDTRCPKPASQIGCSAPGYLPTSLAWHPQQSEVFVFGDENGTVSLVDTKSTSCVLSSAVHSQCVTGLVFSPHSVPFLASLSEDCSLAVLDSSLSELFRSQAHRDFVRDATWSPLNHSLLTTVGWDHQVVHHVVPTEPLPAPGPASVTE

| IC50 (Table A-2) [nM] | IC50 (Table B-2) [nM] | Structure (SMILES) |
| --- | --- | --- |
| 1000 to 10000 |  | O=C(CCc1ccccc1)NCC(O)CN1CCc2ccccc2C1 (stereo not shown) [Compound A2] |
| 1000 to 10000 |  | CN(CC(O)CN1CCc2ccccc2C1)C(=O)CCc1ccccc1 (stereo not shown) [Compound A3] |
| < 100 |  | O=C(COc1cccc2c1CCCN2Cc1ccccc1)NCC(O)CN1CCc2ccccc2C1 (stereo not shown) [Compound A4] |
| 10000 to 50000 |  | CN(CC(O)CN1CCc2ccccc2C1)C(=O)COc1ccccc1 (stereo not shown) [Compound A5] |
| 1000 to 10000 |  | O=C(COc1ccc(F)cc1)NCC(O)CN1CCc2ccccc2C1 (stereo not shown) [Compound A10] |
| 1000 to 10000 |  | NC(=O)c1ccc(OCC(=O)NCC(O)CN2CCc3ccccc3C2)cc1 (stereo not shown) [Compound A13] |
| 1000 to 10000 |  | CS(=O)(=O)c1ccc(OCC(=O)NCC(O)CN2CCc3ccccc3C2)cc1 (stereo not shown) [Compound A14] |
| 101 to 1000 |  | O=C(COC1CCCCC1)NCC(O)CN1CCc2ccccc2C1 (stereo not shown) [Compound A24] |
| 101 to 1000 |  | CC(C)(Oc1ccccc1)C(=O)NCC(O)CN1CCc2ccccc2C1 (stereo not shown) [Compound A25] |
| 1000 to 10000 |  | O=C(COc1ccccc1)NC[C@@H](O)CN1CCc2ccccc2C1 [Compound A33] |
| 1000 to 10000 |  | O=C(COC1CCOCC1)NCC(O)CN1CCc2ccccc2C1 (stereo not shown) [Compound A41] |
| 10000 to 50000 |  | O=C(Cc1ccncc1)NCC(O)CN1CCc2ccccc2C1 (stereo not shown) [Compound A51] |
| 1000 to 10000 |  | NS(=O)(=O)c1ccc(OCC(=O)NCC(O)CN2CCc3ccccc3C2)cc1 (stereo not shown) [Compound A52] |
| 101 to 1000 |  | O=C(Cc1ccccc1)NC[C@H](O)CN1CCc2ccccc2C1 [Compound A55] |
| 1000 to 10000 |  | O=C(CC1CCCCC1)NC[C@H](O)CN1CCc2ccccc2C1 [Compound A56] |
| 10000 to 50000 |  | O=C(Cc1ccccc1)NC[C@@H](O)CN1CCc2ccccc2C1 [Compound A57] |
| 10000 to 50000 |  | O=C(CC1CCCCC1)NC[C@@H](O)CN1CCc2ccccc2C1 [Compound A58] |
| 1000 to 10000 |  | C[C@H](Oc1cccc2cccnc12)C(=O)NC[C@@H](O)CN1CCc2ccccc2C1 [Compound A72] |
| 1000 to 10000 |  | O=C(COc1ccccc1OCCN1CCOCC1)NC[C@@H](O)CN1CCc2ccccc2C1 [Compound A87] |
| 10000 to 50000 |  | O=C(COc1ccccc1-c1c[nH]cn1)NCC(O)CN1CCc2ccccc2C1 (stereo not shown) [Compound A115] |
| 1000 to 10000 |  | O=C(COc1cccc(NC2CCOCC2)n1)NCC(O)CN1CCc2ccccc2C1 (stereo not shown) [Compound A121] |

| IC50 (Table A-2) [nM] | IC50 (Table B-2) [nM] | Structure (SMILES) |
| --- | --- | --- |
| 1000 to 10000 |  | O=C(COc1cccc2[nH]c(=O)cnc12)NCC(O)CN1CCc2ccccc2C1 (stereo not shown) [Compound A125] |
| > 50000 |  | CC(Oc1ccccc1S(N)(=O)=O)C(=O)NCC(O)CN1CCc2ccccc2C1 (stereo not shown) [Compound A126] |
| > 50000 |  | CC(=O)Nc1cccnc1OCC(=O)NCC(O)CN1CCc2ccccc2C1 (stereo not shown) [Compound A128] |
| 1000 to 10000 |  | NS(=O)(=O)c1cccc(OCC(=O)NCC(O)CN2CCc3ccccc3C2)c1 (stereo not shown) [Compound A131] |
| 1000 to 10000 |  | O=C(COc1ccccc1C1CNC1)NCC(O)CN1CCc2ccccc2C1 (stereo not shown) [Compound A132] |
| > 10000 |  | CN(C)c1cccnc1OCC(=O)NCC(O)CN1CCc2ccccc2C1 (stereo not shown) [Compound A133] |
| 1000 to 10000 |  | CN1CC(c2ccccc2OCC(=O)NCC(O)CN2CCc3ccccc3C2)C1 (stereo not shown) [Compound A135] |
| 1000 to 10000 |  | CN1CCC(c2ccccc2OCC(=O)NCC(O)CN2CCc3ccccc3C2)C1 (stereo not shown) [Compound A136] |
| > 10000 |  | CS(=O)(=O)Nc1ncccc1OCC(=O)NCC(O)CN1CCc2ccccc2C1 (stereo not shown) [Compound A139] |
| 1000 to 10000 |  | CS(=O)(=O)Nc1cccnc1OCC(=O)NCC(O)CN1CCc2ccccc2C1 (stereo not shown) [Compound A140] |
| 1000 to 10000 |  | CC(C)(C)OC(=O)Nc1ccccc1OCC(=O)NCC(O)CN1CCc2ccccc2C1 (stereo not shown) [Compound A141] |
| 1000 to 10000 |  | CN(C)c1cncc(OCC(=O)NCC(O)CN2CCc3ccccc3C2)c1 (stereo not shown) [Compound A143] |
| > 10000 |  | O=C(COc1cccc2cccnc12)NCC(O)CN1Cc2ccccc2C(F)(F)C1 (stereo not shown) [Compound A144] |
| 1000 to 10000 |  | Nc1ncccc1OCC(=O)NCC(O)CN1CCc2ccccc2C1 (stereo not shown) [Compound A145] |
| > 10000 |  | CC(=O)Nc1ncccc1OCC(=O)NCC(O)CN1CCc2ccccc2C1 (stereo not shown) [Compound A147] |
| > 10000 |  | CC(=O)Nc1cncc(OCC(=O)NCC(O)CN2CCc3ccccc3C2)c1 (stereo not shown) [Compound A148] |
| 101 to 1000 |  | O=C(COc1cccc2c1CCCN2)NCC(O)CN1CCc2ccccc2C1 (stereo not shown) [Compound A150] |
| 101 to 1000 |  | CN1CCCc2c(OCC(=O)NCC(O)CN3CCc4ccccc4C3)cccc21 (stereo not shown) [Compound A151] |
| 1000 to 10000 |  | O=C(COCc1cccnc1)NCC(O)CN1CCc2ccccc2C1 (stereo not shown) [Compound A152] |
|  | < 100 | O=C(NCC(O)CN1CCc2ccccc2C1)c1cccc(-c2ccccn2)c1 (stereo not shown) [Compound B1.] |
|  | < 100 | Cn1nccc1-c1cccc(C(=O)NCC(O)CN2CCc3ccccc3C2)c1 (stereo not shown) [Compound B2.] |

| IC50 (Table A-2) [nM] | IC50 (Table B-2) [nM] | Structure (SMILES) |
| --- | --- | --- |
|  | < 100 | O=C(NC[C@H](O)CN1CCc2ccccc2C1)c1ccccc1 [Compound B3.] |
|  | < 100 | O=C(NCC(O)CN1CCc2ccccc2C1)c1cccc(-c2cccnc2)c1 (stereo not shown) [Compound B8.] |
|  | < 100 | O=C(NCC(O)CN1CCc2ccccc2C1)c1cccc(-c2ccncc2)c1 (stereo not shown) [Compound B9.] |
|  | < 100 | O=C(NCC(O)CN1CCc2ccccc2C1)c1cccc(-c2cc[nH]n2)c1 (stereo not shown) [Compound B10.] |
|  | 101 to 1000 | O=C(NCC(O)CN1CCc2ccccc2C1)c1ccccc1-c1ccccn1 (stereo not shown) [Compound B12.] |
|  | < 100 | O=C(NCC(O)CN1CCc2ccccc2C1)c1ccc(-c2ccccn2)cc1 (stereo not shown) [Compound B13.] |
|  | < 100 | O=C(NCC(O)CN1CCc2ccccc2C1)c1cccc(N2CCOCC2)c1 (stereo not shown) [Compound B14.] |
|  | < 100 | O=C(NCC(O)CN1CCc2ccccc2C1)c1cccc(CNC2CCOCC2)c1 (stereo not shown) [Compound B15.] |
|  | < 100 | O=C(NCC(O)CN1CCc2ccccc2C1)c1cccc(NC2CCOCC2)c1 (stereo not shown) [Compound B16.] |
|  | 101 to 1000 | O=C(NCC(O)CN1CCc2ccccc2C1)c1ccccn1 (stereo not shown) [Compound B17.] |
|  | 101 to 1000 | O=C(NCC(O)CN1CCc2ccccc2C1)c1cccnc1 (stereo not shown) [Compound B18.] |
|  | < 100 | O=C(NC[C@@H](O)CN1CCc2ccccc2C1)c1cccc(-c2ccccn2)c1 [Compound B19.] |
|  | < 100 | O=C(NC[C@H](O)CN1CCc2ccccc2C1)c1cccc(-c2ccccn2)c1 [Compound B20.] |
|  | 101 to 1000 | NS(=O)(=O)c1ccc(C(=O)NCC(O)CN2CCc3ccccc3C2)cc1 (stereo not shown) [Compound B21.] |
|  | 101 to 1000 | NC(=O)c1ccc(C(=O)NCC(O)CN2CCc3ccccc3C2)cc1 (stereo not shown) [Compound B22.] |
|  | 101 to 1000 | CC(=O)Nc1ccc(C(=O)NCC(O)CN2CCc3ccccc3C2)cc1 (stereo not shown) [Compound B23.] |
|  | < 100 | CS(=O)(=O)Nc1cccc(C(=O)NCC(O)CN2CCc3ccccc3C2)c1 (stereo not shown) [Compound B24.] |
|  | 101 to 1000 | NC(=O)c1cccc(C(=O)NCC(O)CN2CCc3ccccc3C2)c1 (stereo not shown) [Compound B25.] |
|  | 101 to 1000 | CC(=O)Nc1cccc(C(=O)NCC(O)CN2CCc3ccccc3C2)c1 (stereo not shown) [Compound B26.] |
|  | 1000 to 10000 | CS(=O)(=O)Nc1ccccc1C(=O)NCC(O)CN1CCc2ccccc2C1 (stereo not shown) [Compound B27.] |
|  | < 100 | CN(C)CCOc1cccc(C(=O)NCC(O)CN2CCc3ccccc3C2)c1 (stereo not shown) [Compound B28.] |

| Structure (SMILES) | IC50 (Table A-2) [nM] | IC50 (Table B-2) [nM] |
| --- | --- | --- |
| O=C(NC[C@@H](O)CN1CCc2ccccc2C1)Oc1ccccc1 [Compound B11.] |  | < 100 |
